Series [1] deals with histone methylation in NIH 3T3 cells. The experiment in a line: Western blot of methylated histones in NIH 3T3 cells. The class given is cell-based. The settings on record: FIDAS5 treatment. Here is the method: 1.5×10^6 cells were lysed in Llaemli-SDS buffer and then sonicated. Total protein concentration was measured by Bradford assay. Total cell lysates were separated by SDS-PAGE and transferred onto nitrocellulose, followed by blocking in 5% (v/v) milk in Tris-buffered saline in Tween 20, probing with the indicated antibodies and visualized by chemiluminescence (Roche). Primary antibodies used were anti-β-Actin (sc-47778), anti-GAPDH (sc-32233) from Santa Cruz: anti-GLDC (ab97625), anti-H3 (ab1791), anti-H3 (dimethylK36) (ab9049), anti-MAT2A (ab77471), anti-MTR (ab9209), anti-H3 (trimethylK79) (ab2621), anti-MTHFR (ab125707), anti-MTAP (ab ab55517) from Abcam; anti-H3(trimethyl K4) (39159), anti-H3(trimethyl K27)(39155), anti-H3(trimethylK36)(61101) and anti-H3(trimethylK9)(39765) from Active Motif; anti-β-catenin (BD610154) from BD Biosciences; anti-SHMT2 (HPA020549) and anti-SAHH (WH0000191M8) from Sigma; anti-Symmetric Di-Methyl Arginine Motif (13222) from CST.
(Immunoblotting shows a protein as a band on a membrane.)

Series [2] has as its system triple-negative breast cancer (TNBC) cells incl. BC2.2. The experiment in a line: Sensitivity of triple-negative breast cancer cells to MAT2A inhibition. Format: cell-based. The settings on record: in particular chemotherapy resistant BC2.2.
Series [3] relates to non-neoplastic cell lines. The experiment in a line: Proliferation of non-neoplastic (untransformed) cell lines in FIDAS5-containing media. Format: cell-based. Here is the method:
(§1) Cells were seeded into 96-well plates at a density of 2,000 cells/well for TS cells and 500 cells/well for Adh cells. The relative number of viable cells was determined by the quantification of ATP using the CellTiter-Glo Luminescent Cell Viability Assay (Promega) system.

The subject of a further series is TS cells (lung TICs). The experiment in a line: Tumor formation in NSG mice after transplantation of pre-treated TS cells. The class given is in vivo. The settings on record: 500,000 TS cells treated 48 h with inhibitor, transplanted into NSG mice, 6 weeks. From the text: (§2) 5×10^5 single cells were mixed in a 1:1 mixture of serum free DMEM/F12 and Matrigel (BD) and injected subcutaneously into the flanks of 4-6 week old male and female NOD.Cg-Prkdc^scid Il2rg^tm1wjl SzJ (Jackson Laboratories). About 6 weeks later, or when tumor sizes exceed 2 cm in length, mice were sacrificed and tumors harvested for analysis. All animal experiments were approved by the Agency for Science Technology and Research Singapore—Biological Resource Centre. Mice were randomized by sex.
To evaluate the methionine cycle as a therapeutic target in lung TICs, small molecule inhibitors that target enzymes within this pathway were employed, mimicking the effects of short-term methionine starvation (FIG. 5a). two inhibitors known to perturb methionine cycle activity and cellular methylation levels: 1) MAT2A inhibitor, FIDAS5; and 2) SAHH inhibitor, D9, which is an analog of DZNep. In a manner similar to amino acid starvation studies, TS cells were exposed transiently to the compounds for 48 h in culture and were immediately used for downstream tumorigenesis assays.

Series [4] concerns TS cells. The experiment in a line: Apoptosis assay (Annexin V/PI) of inhibitor treated TS cells. The class given is cell-based, human. The settings on record: transient exposure. The source says:
10^6 cells were stained with FITC Annexin V and PI, and analysed for apoptosis by flow cytometry using an LSRII Cell Analyzer (BD) according to manufacturer's instructions.

Series [5] deals with TS cells. The experiment in a line: Cell proliferation assay (CellTiter-Glo) of TS cells. Format: cell-based, human. The method, then: as §1
On the technique in general: In ATP-based viability assays light output follows the ATP content of the culture.

Series [6] concerns cancer cell lines with high or low MAT2A expression. The experiment in a line: Proliferation of cancer cell lines grown in FIDAS5 containing medium. The class given is cell-based. The settings on record: 10 uM. Here is the method: as §1
Series [7] deals with CD166 expression in TS cells. The experiment in a line: CD166 staining of TS cells by flow cytometry. Format: cell-based, human. The settings on record: FIDAS vs DMSO.
The test system of series [8] is lung patient-derived xenograft (PDX) cells A139, A233. The experiment in a line: Patient-derived lung tumor xenografts (PDX) in NSG mice. The settings on record: two PDX lines, FIDAS5 40 mg/kg for three days after implantation, six weeks. The class given is in vivo.
From the text: as §2
Since FIDAS5 appeared to more specifically disrupt the methionine cycle and inhibit cellular methylation activities compared to D9, it was sought to test whether its systemic delivery could impact the tumorigenic potential of TS cells. These highly tumorigenic cells were first subcutaneously implanted into NSG mice and FIDAS5 (40 mg/kg) or corn oil carrier was immediately administered via intraperitoneal injection for three consecutive days. After 6 weeks, mice transiently treated with FIDAS5 produced tumors that were much smaller than carrier-treated controls. […] To exclude the possibility of general cytotoxicity associated with the inhibitor on TS cells, TS cell-implanted NSG mice were treated with cisplatin (4 mg/kg), a frontline chemotherapeutic agent that broadly target bulk cancer cells in NSCLC tumors, in the same manner (FIG. 5i). […]

Structures are written as SMILES. Entries after “also recorded” stand apart in the source; their conditions may differ.

As for `CNc1ccc(/C=C/c2c(F)cccc2Cl)cc1` [FIDAS5], the histone methylation marks entry in [1] was “did not demonstrate reduction in histone methylation marks”. The “effect on TNBC cells” value in series [2] is “displayed sensitivity; also recorded: effective”. Moreover, the “proliferation in FIDAS5-containing media” value in series [3] is listed as “far less affected”. Besides, in the series on TS cells (lung TICs), the tumor-forming ability entry was “severely diminished”. Also, in the series with TS cells [4], the apoptosis entry is on record as “did not negatively impact their long-term proliferation ability or trigger apoptosis”. Besides, in the series on TS cells [5] (TS cells exposed to FIDAS5 for six days, then medium without FIDAS5), the growth capacity entry is “completely ablated”. Further, the long-term proliferation ability entry with TS cells [5] (TS cells, transient 48 h exposure then complete media) is given as “did not negatively impact”. In addition, the “growth upon FIDAS5 treatment” value in series [6] (cancer cell lines expressing high MAT2A) is “dramatically hampered in their growth”; in [6] (cancer cell lines expressing low MAT2A), “largely insensitive”. Moreover, in [7], the CD166 expression result is “loss of CD166 expression”. In addition, the “xenograft tumors smaller relative to sham-treated mice” value in series [8] is given as “at least 6 fold”.

For the origin of these results see patent US11872230B2, “Method of treating a methionine-dependent cancer” (Agency for Science, Technology and Research, priority 2018, dated 2024).
